Measurements from paper PMC5468247, “Development of a selective agonist for relaxin family peptide receptor 3” (Scientific Reports, 2017).

Tests used:
[1] = target: T1, human RXFP3 (Homo sapiens, UniProt Q9NSD7); assay: Receptor activation assay, CRE-controlled NanoLuc reporter; format: cell-based; details: for fold lower activation potency towards RXFP3 compared with R3/I5: relative to R3/I5; for fold higher activation potency towards RXFP3 than towards RXFP4: selectivity RXFP3 over RXFP4, from activation assays
T1 construct: expressed in transfected cells; host or cells: HEK293T
T1 sequence (Q9NSD7 1-469): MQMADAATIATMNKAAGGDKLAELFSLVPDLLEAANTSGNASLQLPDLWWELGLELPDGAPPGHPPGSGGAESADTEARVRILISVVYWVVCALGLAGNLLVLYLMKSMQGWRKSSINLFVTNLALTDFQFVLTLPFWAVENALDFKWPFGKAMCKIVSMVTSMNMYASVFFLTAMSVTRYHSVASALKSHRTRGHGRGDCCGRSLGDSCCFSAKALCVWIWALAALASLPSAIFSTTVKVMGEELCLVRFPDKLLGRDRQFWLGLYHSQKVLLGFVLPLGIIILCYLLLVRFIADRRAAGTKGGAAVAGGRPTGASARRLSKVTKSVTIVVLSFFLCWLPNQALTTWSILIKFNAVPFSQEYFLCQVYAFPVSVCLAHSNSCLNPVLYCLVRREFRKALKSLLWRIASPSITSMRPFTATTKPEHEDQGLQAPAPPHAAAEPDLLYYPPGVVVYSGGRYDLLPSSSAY
Source text: (§1) HEK293T cells transiently cotransfected with a CRE-controlled NanoLuc reporter vector and the expression construct of human RXFP3 or human RXFP4 were used for activation assays. The measured bioluminescence data are expressed as means ± SE (n = 3) and fitted to sigmoidal or linear curves using SigmaPlot 10.0.
(§2) Briefly, HEK293T cells were transiently cotransfected with the NanoLuc reporter vector pNL1.2/CRE and the expression construct of human RXFP3 or human RXFP4. On the next day, transfected cells were trypsinised, seeded into 96-well plates, and continuously cultured for 24–36 h to ~90% confluence. To initiate activation assays, medium was removed and activation solution (serum-free DMEM medium plus 1% bovine serum albumin) containing 1.0 μM of forskolin and various concentrations of peptide was added (100 μl/well). After continuous culturing at 37 °C for 4 h, activation solution was removed and cells were lysed with lysis solution (100 μl/well, Promega). Cell lysates were then transferred to a white opaque 96-well plate (50 μl/well), mixed with freshly diluted substrate (50 μl/well), and bioluminescence was immediately measured on a SpectraMax M5 plate reader (Molecular Devices) in luminescence mode. The measured data were expressed as means ± SE (n = 3) and fitted to sigmoidal or linear curves using SigmaPlot 10.0 software.

[2] = target: T2, human RXFP4 (Homo sapiens, UniProt Q8TDU9); assay: as above; format: cell-based; details: relative to R3/I5
T2 construct: expressed in transfected cells; host or cells: HEK293T
Source text: as §1, §2

[3] = target: T1, human RXFP3; assay: Receptor binding assay, NanoLuc-conjugated R3/I5 tracer competition; details: for binding potency towards RXFP3, in words: compared with R3/I5
Method: (§3) Specific binding data are expressed as means ± SE (n = 3) and fitted to sigmoidal curves using SigmaPlot 10.0 software.
(§4) Briefly, HEK293T cells were transiently transfected with an expression construct of human RXFP3 or human RXFP4. On the next day, transfected cells were trypsinised, seeded into 96-well plates, and continuously cultured for 24–36 h to ~100% confluence. […] After incubation at 21 °C for 2 h, binding solution was removed and cells were washed twice with ice-cold phosphate-buffered saline (200 μl/well for each wash). Thereafter, cells were lysed by lysis solution (100 μl/well, Promega, Madison, WI, USA) and cell lysates were transferred to a white opaque 96-well plate (50 μl/well). After mixing with freshly diluted substrate (50 μl/well), bioluminescence was immediately measured on a SpectraMax M5 plate reader (Molecular Devices, Sunnyvale, CA, USA) in luminescence mode. […] The calculated specific binding data were expressed as means ± standard error (SE; n = 3) and fitted to sigmoidal curves using SigmaPlot 10.0 software.

[4] = target: T2, human RXFP4; assay: as above
Method: as §3, §4

[5] = CRE-NanoLuc reporter, human RXFP3

T2 sequence (Q8TDU9 whole entry): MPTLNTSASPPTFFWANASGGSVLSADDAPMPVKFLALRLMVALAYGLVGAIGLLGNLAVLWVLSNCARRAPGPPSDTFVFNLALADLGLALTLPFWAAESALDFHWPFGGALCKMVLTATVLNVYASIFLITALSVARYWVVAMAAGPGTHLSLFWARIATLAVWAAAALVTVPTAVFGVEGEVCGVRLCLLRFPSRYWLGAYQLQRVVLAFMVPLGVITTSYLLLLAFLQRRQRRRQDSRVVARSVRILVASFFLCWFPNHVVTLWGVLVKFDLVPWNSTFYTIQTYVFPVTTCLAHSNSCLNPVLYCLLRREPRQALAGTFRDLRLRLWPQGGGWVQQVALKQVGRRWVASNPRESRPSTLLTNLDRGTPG

With `CC[C@H](C)[C@@H]1NC(=O)[C@H](Cc2ccccc2)NC(=O)[C@H](CCC(=O)O)NC(=O)[C@H](CCCNC(=N)N)NC(=O)CNC(=O)[C@@H](NC(=O)[C@H](CC(C)C)NC(=O)[C@H](CCCNC(=N)N)NC(=O)[C@@H](NC(=O)CNC(=O)[C@H](Cc2ccc(O)cc2)NC(=O)[C@@H]2CCCN2C(=O)[C@H](C)NC(=O)[C@H](C)NC(=O)[C@H](CCCNC(=N)N)NC(=O)[C@@H]2CCC(=O)N2)C(C)C)CSSC[C@@H]2NC(=O)[C@@H](NC(=O)[C@H](CC(C)C)NC(=O)[C@@H](NC(=O)[C@H](CCC(N)=O)NC(=O)[C@H](CC(C)C)NC(=O)[C@H](CC(=O)O)NC(=O)[C@H](CCC(N)=O)NC(=O)[C@H](CCCNC(=N)N)NC(=O)[C@H](CO)NC(=O)[C@H](CCCNC(=N)N)NC(=O)[C@H](CCCNC(=N)N)NC(=O)[C@H](CO)NC(=O)[C@@H](N)CCCNC(=N)N)[C@@H](C)O)CSSC[C@H](NC(=O)CNC(=O)[C@H](CC(=O)O)NC(=O)[C@H]([C@@H](C)O)NC2=O)C(=O)N[C@@H](CO)C(=O)N[C@@H](CCSC)C(=O)N[C@@H]([C@@H](C)O)C(=O)N[C@@H](CC(=O)O)C(=O)N[C@@H](CC(C)C)C(=O)N[C@@H](CO)C(=O)N[C@@H](C)C(=O)N[C@@H](CC(C)C)C(=O)N[C@H](C(=O)O)CSSC[C@@H](C(=O)N[C@@H](CCCNC(=N)N)C(=O)N[C@@H](Cc2c[nH]c3ccccc23)C(=O)O)NC(=O)[C@H]([C@@H](C)O)NC(=O)[C@H](Cc2ccccc2)NC(=O)[C@H]([C@@H](C)CC)NC(=O)[C@H](C(C)C)NC(=O)[C@H](C)NC(=O)[C@H](CCCNC(=N)N)NC1=O` [[∆B23-25]R3/I5] the “fold lower activation potency towards RXFP3 compared with R3/I5” value [1, 5] was ~ 30 fold, the “fold lower activation potency towards RXFP4 compared with R3/I5” value [2] was ~ 30 fold and the “binding potency towards RXFP3, in words” value [3] was “almost normal binding potency”. The “binding potency towards RXFP4, in words” value ([4]; compared with R3/I5) was “almost normal binding potency”.

In the case of `CC[C@H](C)[C@@H]1NC(=O)[C@H](Cc2ccccc2)NC(=O)[C@H](CCC(=O)O)NC(=O)[C@H](CCCNC(=N)N)NC(=O)CNC(=O)[C@@H](NC(=O)[C@H](CC(C)C)NC(=O)[C@H](CCCNC(=N)N)NC(=O)[C@@H](NC(=O)CNC(=O)[C@H](Cc2ccc(O)cc2)NC(=O)[C@@H]2CCCN2C(=O)[C@H](C)NC(=O)[C@H](C)NC(=O)[C@H](CCCNC(=N)N)NC(=O)[C@@H]2CCC(=O)N2)C(C)C)CSSC[C@@H]2NC(=O)[C@@H](NC(=O)[C@H](CC(C)C)NC(=O)[C@@H](NC(=O)[C@H](CCC(N)=O)NC(=O)[C@H](CC(C)C)NC(=O)[C@H](CC(=O)O)NC(=O)[C@H](CCC(N)=O)NC(=O)[C@H](CCCNC(=N)N)NC(=O)[C@H](CO)NC(=O)[C@H](CCCNC(=N)N)NC(=O)[C@H](CCCNC(=N)N)NC(=O)[C@H](CO)NC(=O)[C@@H](N)CCCNC(=N)N)[C@@H](C)O)CSSC[C@H](NC(=O)CNC(=O)[C@H](CC(=O)O)NC(=O)[C@H]([C@@H](C)O)NC2=O)C(=O)N[C@@H](CO)C(=O)N[C@@H](CCSC)C(=O)N[C@@H]([C@@H](C)O)C(=O)N[C@@H](CC(=O)O)C(=O)N[C@@H](CC(C)C)C(=O)N[C@@H](CO)C(=O)N[C@@H](C)C(=O)N[C@@H](CC(C)C)C(=O)N[C@H](C(=O)O)CSSC[C@@H](C(=O)NCC(=O)N[C@@H](CO)C(=O)N[C@@H](CO)C(=O)N[C@@H](CCCNC(=N)N)C(=O)N[C@@H](Cc2c[nH]c3ccccc23)C(=O)O)NC(=O)[C@H]([C@@H](C)O)NC(=O)[C@H](Cc2ccccc2)NC(=O)[C@H]([C@@H](C)CC)NC(=O)[C@H](C(C)C)NC(=O)[C@H](C)NC(=O)[C@H](CCCNC(=N)N)NC1=O` [[G(B24)S]R3/I5], the “activation potency towards RXFP3, in words” value ([1]; CRE-NanoLuc reporter, human RXFP3, compared with R3/I5) is reported as “retained full activation and binding potencies”, the “fold higher activation potency towards RXFP3 than towards RXFP4” value [1] is reported as 20 fold and the “fold lower activation potency towards RXFP4 compared with R3/I5” value [2] is reported as 20 fold. For the same molecule, the “binding potency towards RXFP3, in words” value [3] was “retained full activation and binding potencies” and the “fold lower binding potency towards RXFP4 compared with R3/I5” value ([4]; relative to R3/I5) was 2 fold.

With `CC[C@H](C)[C@@H]1NC(=O)[C@H](Cc2ccccc2)NC(=O)[C@H](CCC(=O)O)NC(=O)[C@H](CCCNC(=N)N)NC(=O)CNC(=O)[C@@H](NC(=O)[C@H](CC(C)C)NC(=O)[C@H](CCCNC(=N)N)NC(=O)[C@@H](NC(=O)CNC(=O)[C@H](Cc2ccc(O)cc2)NC(=O)[C@@H]2CCCN2C(=O)[C@H](C)NC(=O)[C@H](C)NC(=O)[C@H](CCCNC(=N)N)NC(=O)[C@@H]2CCC(=O)N2)C(C)C)CSSC[C@@H]2NC(=O)[C@@H](NC(=O)[C@H](CC(C)C)NC(=O)[C@@H](NC(=O)[C@H](CCC(N)=O)NC(=O)[C@H](CC(C)C)NC(=O)[C@H](CC(=O)O)NC(=O)[C@H](CCC(N)=O)NC(=O)[C@H](CCCNC(=N)N)NC(=O)[C@H](CO)NC(=O)[C@H](CCCNC(=N)N)NC(=O)[C@H](CCCNC(=N)N)NC(=O)[C@H](CO)NC(=O)[C@@H](N)CCCNC(=N)N)[C@@H](C)O)CSSC[C@H](NC(=O)CNC(=O)[C@H](CC(=O)O)NC(=O)[C@H]([C@@H](C)O)NC2=O)C(=O)N[C@@H](CO)C(=O)N[C@@H](CCSC)C(=O)N[C@@H]([C@@H](C)O)C(=O)N[C@@H](CC(=O)O)C(=O)N[C@@H](CC(C)C)C(=O)N[C@@H](CO)C(=O)N[C@@H](C)C(=O)N[C@@H](CC(C)C)C(=O)N[C@H](C(=O)O)CSSC[C@@H](C(=O)NCC(=O)N[C@H](C(=O)N[C@@H](CO)C(=O)N[C@@H](CCCNC(=N)N)C(=O)N[C@@H](Cc2c[nH]c3ccccc23)C(=O)O)C(C)C)NC(=O)[C@H]([C@@H](C)O)NC(=O)[C@H](Cc2ccccc2)NC(=O)[C@H]([C@@H](C)CC)NC(=O)[C@H](C(C)C)NC(=O)[C@H](C)NC(=O)[C@H](CCCNC(=N)N)NC1=O` [[G(B24)V]R3/I5] the “fold lower activation potency towards RXFP3 compared with R3/I5” value [1, 5] was ~ 10 fold, the “fold higher activation potency towards RXFP3 than towards RXFP4” value [1] was ~ 10 fold and the “fold lower binding potency for RXFP3 compared with R3/I5” value ([3]; relative to R3/I5) was ~ 5 fold.

`CC[C@H](C)[C@@H]1NC(=O)[C@H](Cc2ccccc2)NC(=O)[C@H](CCC(=O)O)NC(=O)[C@H](CCCNC(=N)N)NC(=O)CNC(=O)[C@@H](NC(=O)[C@H](CC(C)C)NC(=O)[C@H](CCCNC(=N)N)NC(=O)[C@@H](NC(=O)CNC(=O)[C@H](Cc2ccc(O)cc2)NC(=O)[C@@H]2CCCN2C(=O)[C@H](C)NC(=O)[C@H](C)NC(=O)[C@H](CCCNC(=N)N)NC(=O)[C@@H]2CCC(=O)N2)C(C)C)CSSC[C@@H]2NC(=O)[C@@H](NC(=O)[C@H](CC(C)C)NC(=O)[C@@H](NC(=O)[C@H](CCC(N)=O)NC(=O)[C@H](CC(C)C)NC(=O)[C@H](CC(=O)O)NC(=O)[C@H](CCC(N)=O)NC(=O)[C@H](CCCNC(=N)N)NC(=O)[C@H](CO)NC(=O)[C@H](CCCNC(=N)N)NC(=O)[C@H](CCCNC(=N)N)NC(=O)[C@H](CO)NC(=O)[C@@H](N)CCCNC(=N)N)[C@@H](C)O)CSSC[C@H](NC(=O)CNC(=O)[C@H](CC(=O)O)NC(=O)[C@H]([C@@H](C)O)NC2=O)C(=O)N[C@@H](CO)C(=O)N[C@@H](CCSC)C(=O)N[C@@H]([C@@H](C)O)C(=O)N[C@@H](CC(=O)O)C(=O)N[C@@H](CC(C)C)C(=O)N[C@@H](CO)C(=O)N[C@@H](C)C(=O)N[C@@H](CC(C)C)C(=O)N[C@H](C(=O)O)CSSC[C@@H](C(=O)NCC(=O)N[C@H](C(=O)N[C@@H](CO)C(=O)N[C@@H](CCCNC(=N)N)C(=O)N[C@@H](Cc2c[nH]c3ccccc23)C(=O)O)[C@@H](C)O)NC(=O)[C@H]([C@@H](C)O)NC(=O)[C@H](Cc2ccccc2)NC(=O)[C@H]([C@@H](C)CC)NC(=O)[C@H](C(C)C)NC(=O)[C@H](C)NC(=O)[C@H](CCCNC(=N)N)NC1=O` [[G(B24)T]R3/I5] was tested, and the “fold lower activation potency towards RXFP3 compared with R3/I5” value [1, 5] was ~ 20 fold and the “fold higher activation potency towards RXFP3 than towards RXFP4” value [1] was ~ 2 fold.
